The values that follow come from BindingDB's records for doi:10.1021/jm00037a008 (Institute, 1994).

Assay [1] can be described thus: Evaluation for the inhibition of kappa opioid binding to bovine striatal membranes by the affinity ligand 1 nM [3H]U-69593.
The nature of assay [2]: Evaluation for the inhibition of delta opioid binding to bovine striatal membranes by the affinity ligand 0.2 nM [3H]p-Cl-DPDPE.

With `CN1CC[C@]23c4c5ccc(O)c4O[C@H]2C(=O)CC[C@@]3(NC(=O)CS)C1C5` [1N-[10-hydroxy-4-methyl-14-oxo-12-oxa-4-azapentacyclo[9.6.1.01,13.05,17.07,18]octadeca-7,9,11(18)-trien-17-yl]-2-sulfanylacetamide], the IC50 in assay [1] came to 41 nM; in assay [2] it was 12 nM.

By IC50 is commonly meant the midpoint of a concentration-inhibition curve. The low end stands for inhibition by little substance, the high end for a need for much substance.
